Reference: patent US20110152087A1, “Herbicidal compositions comprising flufenacet” (Bayer CropScience AG, priority 2009, published 2011)

Columns and labels:
Assay type in all cases: in vivo
[1] = tested on: TRZAS=Triticum aestivum, summer wheat=crop plant; experiment: Greenhouse trial, selective post-emergence action on crop plants (test method 2)
Method: (§1) In the standard design of the test, seeds of various broad-leaved weed and weed grass biotypes (origins) were sown in a 8-13 cm diameter pot filled with natural soil of a standard field soil (loamy silt; non-sterile) and covered with a covering soil layer of about 1 cm. The pots were then cultivated in a greenhouse (12-16 h of light, temperature day 20-22° C., night 15-18° C.) until the time of application. The pots were treated on a laboratory track sprayer with spray liquors comprising the compositions according to the invention, mixtures of the prior art or components used individually. Application of the active compounds or active compound combinations formulated as WG, WP, EC or otherwise was carried out at the appropriate growth stages of the plants. The application rate for the spray application was 100-600 l of water/ha. After the treatment, the plants were returned to the greenhouses.
(§2) About 3 weeks after the application, the soil action or/and foliar action was assessed visually according to a scale of 0-100% in comparison to an untreated comparative group: 0%=no noticeable effect compared to the untreated comparative group; 100%=full effect compared to the untreated comparative group.
(§3) (notes: the term “seeds” also includes vegetative propagation forms such as, for example, rhizome pieces; abbreviations used: h light=hours of illumination, g of AS/ha=gram of active substance per hectare, l/ha=liter per hectare, S=sensitive, R=resistant) • 1. Post-emergence action against weeds: seeds of various broad-leaved weed and weed grass biotypes (origins) were sown in a 8-13 cm diameter pot filled with natural soil of a standard field soil (loamy silt; non-sterile) and covered with a covering soil layer of about 1 cm. The pots were then cultivated in a greenhouse (12-16 h of light, temperature day 20-22° C., night 15-18° C.) until the time of application. The pots were treated at various BBCH stages between 11-25 of the seeds/plants, i.e. generally between two to three weeks after the start of the cultivation, on a laboratory track sprayer with spray liquors comprising the compositions according to the invention, mixtures or components used individually, as WG, WP, EC or other formulations. The application rate for the spray application was 100-600 l of water/ha. After the treatment, the plants were returned to the greenhouses and, when required, treated with fertilizer and watered. • 2. Selective post-emergence action: seeds of various crop species (origins) were sown in a 8-13 cm diameter pot filled with natural soil of a standard field soil (loamy silt; non-sterile) and covered with a covering soil layer of about 1 cm. The pots were then cultivated in a greenhouse (12-16 h of light, temperature day 20-22° C., night 15-18° C.) until the time of application. The pots were treated at various BBCH stages between 11-32 of the seeds/plants, i.e. generally between two to four weeks after the start of the cultivation, on a laboratory track sprayer with spray liquors comprising the compositions according to the invention, mixtures or components used individually, as WG, WP, EC or other formulations. The application rate for the spray application was 100-600 l of water/ha. After the treatment, the plants were returned to the greenhouses and, when required, treated with fertilizer and watered. The pots were cultivated in a greenhouse (12-16 h light, temperature day 20-22° C., night 15-18° C.).
(§4) E=(A+B+C)−(A×B+A×C+B×C)/100+(A×B×C)/10 000 • in which: • A, B, C=each the activity of the components A or B or C in percent at a dosage of a or b gram of AS/ha; • E^C=expected value according to Colby in % at a dosage of a+b gram of AS/ha. • Δ=difference (%) of measured value−%-to expected value−%-(measured value minus expected value) • Δ^D=difference (%) of the measured value of an observation A−%-to the measured value of an observation B−%. […]

[2] = tested on: TRZAW=Triticum aestivum, winter wheat=crop plant; experiment: as above
Method: as §1, §2, §3, §4

[3] = tested on: STEME=Stellaria media=weed; experiment: Greenhouse trial, post-emergence action against weeds (test method 1); conditions: PO application, about 3 weeks after application; g of AS/ha: flufenacet 120, diclofop 378, diflufenican 120, mixture 120+378+120
Method: as §1, §2, §3, §4

[4] = tested on: ALOMY=Alopecurus myosuroides=weed; experiment: as above; conditions: PO application, about 3 weeks after application; g of AS/ha: flufenacet 120, diclofop 378, diflufenican 120, mixture 120+378+120
Method: as §1, §2, §3, §4

[5] = tested on: APESV=Apera Spica-venti=weed; experiment: as above; conditions: PO application, about 3 weeks after application; g of AS/ha: flufenacet 120, diclofop 378, diflufenican 120, mixture 120+378+120
Method: as §1, §2, §3, §4

[6] = PO application, about 3 weeks after application, g of AS/ha: flufenacet 120, diclofop 378, diflufenican 120, mixture 120+378+120

Structure (SMILES)	action on crop plant TRZAS, visual assessment on scale 0-100% versus untreated [1, 6]	action on crop plant TRZAW, visual assessment on scale 0-100% versus untreated [2, 6]	activity STEME, visual assessment on scale 0-100% versus untreated [3]	activity ALOMY, visual assessment on scale 0-100% versus untreated [4]	activity APESV, visual assessment on scale 0-100% versus untreated [5]	action on crop plant TRZAS, visual assessment on scale 0-100% versus untreated ([1]; in vivo, po)	action on crop plant TRZAW, visual assessment on scale 0-100% versus untreated ([2]; in vivo, po)
CC(Oc1ccc(Oc2ccc(Cl)cc2Cl)cc1)C(=O)O (racemic) [(B) diclofop, (±)-2-[4-(2,4-dichlorophenoxy)phenoxy]propanoic acid]	10%	20%	0%	15%	0%		
CC(C)N(C(=O)COc1nnc(C(F)(F)F)s1)c1ccc(F)cc1 [(A) flufenacet, N-(4-fluorophenyl)-N-(1-methylethyl)-2-[[5-(trifluoromethyl)-1,3,4-thiadiazol-2-yl]oxy]acetamide]			30%	65%	60%	40%	50%
O=C(Nc1ccc(F)cc1F)c1cccnc1Oc1cccc(C(F)(F)F)c1 [(C) diflufenican, N-(2,4-difluorophenyl)-2-[3-(trifluoromethyl)phenoxy]-3-pyridinecarboxamide]	5%	5%	30%	10%	5%		
